Assay results as given in article PMC6792352, “Limited Chemical Structural Diversity Found to Modulate Thyroid Hormone Receptor in the Tox21 Chemical Library” (Environmental Health Perspectives, 2019).
Counter-ions that a name gives are not always drawn. Non-standard residues stand in square brackets, D forms with d. Residues, ends and D or L forms follow the SMILES beside them. pGlu = O=C1CC[C@@H](C(=O)O)N1

Assay: in vitro
Settings: rat, gh3-tre-luc cells

SMILES	CC50 at 24 h (AC50 (uM) modified / 1000)	other results
CCC(C)(Oc1ccc(C2(c3ccc(OC(C)(CC)C(=O)O)cc3)CCCCC2)cc1)C(=O)O (stereo not drawn) [Clinofibrate]	> 50 µM	
CC(=O)O[C@H]1C[C@@H]2CC[C@@H]3[C@H](CC[C@@]4(C)[C@H]3C[C@H](N3CC[N+](C)(C)CC3)[C@@H]4OC(C)=O)[C@@]2(C)C[C@@H]1N1CC[N+](C)(C)CC1 [Pipecuronium bromide]	> 50 µM	
C(=C(c1ccccc1)c1ccccc1)c1ccccc1 [Triphenylethylene]	> 90 µM	
COP(=S)(OC)Oc1cc(Cl)c(Cl)cc1Cl [Fenchlorphos]		CC50 at 24 h (AC50 (uM) modified / 1000, Tox21_110001=Tox21_113416, viability, 1 nM T3 present, 24 h): > 50 µM; CC50 at 24 h (AC50 (uM) modified / 1000, Tox21_110001=Tox21_301334, viability, 1 nM T3 present, 24 h): > 90 µM
CCCCCCCOC(=O)CCC [Heptyl butanoate]	> 90 µM	
C[C@H]1CC[C@]2(NC1)O[C@H]1C[C@H]3[C@@H]4CC[C@H]5C[C@@H](O[C@@H]6O[C@H](CO)[C@H](O[C@@H]7O[C@H](CO)[C@@H](O)[C@H](O[C@@H]8OC[C@@H](O)[C@H](O)[C@H]8O)[C@H]7O[C@@H]7O[C@H](CO)[C@@H](O)[C@H](O)[C@H]7O)[C@H](O)[C@H]6O)CC[C@]5(C)[C@H]4CC[C@]3(C)[C@H]1[C@@H]2C [alpha-Tomatine]	2.38 µM	
CC(=O)O[C@H]1C[C@H](O[C@H]2[C@@H](O)C[C@H](O[C@H]3[C@@H](O)C[C@H](O[C@H]4CC[C@@]5(C)[C@H](CC[C@@H]6[C@@H]5CC[C@]5(C)[C@@H](C7=CC(=O)OC7)[C@@H](O)C[C@]65O)C4)O[C@@H]3C)O[C@@H]2C)O[C@H](C)[C@H]1O[C@@H]1O[C@H](CO)[C@@H](O)[C@H](O)[C@H]1O [Lanatoside B]	> 50 µM	
C=C(C)CNCC [N-Ethyl-2-methylallylamine]	> 90 µM	
CC1=Nc2ccc3ccccc3c2C1(C)C [1,1,2-Trimethyl-1H-benzo[e]indole]	> 90 µM	
CC(C)N1C(=O)c2ccccc2C1=O [N-Isopropylphthalimide]	> 90 µM	
CCOP(=O)(OCC)Oc1cc(C)nc(C(C)C)n1 [Diazoxon]		CC50 at 24 h (AC50 (uM) modified / 1000, Tox21_110001=Tox21_301125, viability, 1 nM T3 present, 24 h): > 90 µM
CCCCCCCCOC(=O)c1ccccc1C(=O)OCCCCCCCC [Di-n-octyl phthalate]	> 90 µM	
CCCCC1C(=O)NC(=O)N(C2CCCCC2)C1=O (stereo not drawn) [Bucolome]		CC50 at 24 h (AC50 (uM) modified / 1000, Tox21_110001=Tox21_113339, viability, 1 nM T3 present, 24 h): > 50 µM
NCCCCCCN [1,6-Hexanediamine]	> 90 µM	
OC(Cn1cncn1)(Cn1cncn1)c1ccc(F)cc1F [Fluconazole]	> 90 µM	
CO[C@@]1(NC(=O)C2SC(=C(C(N)=O)C(=O)O)S2)C(=O)N2C(C(=O)O)=C(CSc3nnnn3C)CS[C@@H]21 (stereo partly drawn) [Cefotetan]	> 20 µM	
C[N+](C)(C)CCCCCC[N+](C)(C)C [N,N,N,N',N',N'-Hexamethylhexane-1,6-diaminium]	> 50 µM	
c1ccc2c(c1)ccc1ncccc12 [Benzo(f)quinoline]	> 90 µM	
O=C(O)c1ccccn1 [Picolinic acid]	> 50 µM	
Nc1c(Cl)c(F)nc(OCC(=O)O)c1Cl [Fluroxypyr]	> 90 µM	
CSc1ccc2c(c1)C(N1CCN(C)CC1)Cc1ccccc1S2 (stereo not drawn) [Metitepine]	5.16 µM	
C[C@@H]1O[C@@H](O[C@@H]2C=C3CC[C@@H]4[C@H](CC[C@]5(C)[C@@H](c6ccc(=O)oc6)CC[C@]45O)[C@@]3(C)CC2)[C@H](O)[C@H](O)[C@H]1O [Proscillaridin]		CC50 at 24 h (AC50 (uM) modified / 1000, Tox21_110001=Tox21_110442, viability, 1 nM T3 present, 24 h): > 20 µM

SMILES	CC50 at 24 h (AC50 (uM) modified / 1000)	other results
O=C(CC(C(=O)OC1CCCCC1)S(=O)(=O)O)OC1CCCCC1 (stereo not drawn) [Dicyclohexyl sodium sulfosuccinate]	> 90 µM	
CC1(C)S[C@@H]2[C@H](NC(=O)[C@H](N)c3ccccc3)C(=O)N2[C@H]1C(=O)O [Ampicillin trihydrate]	> 90 µM	
CC(=O)OC/C=C/c1ccccc1 [3-Phenylprop-2-en-1-yl acetate]	> 90 µM	
C=CCOC(=O)CCCCCCCC [Allyl nonanoate]	> 90 µM	
ClCBr [Bromochloromethane]		CC50 at 24 h (AC50 (uM) modified / 1000, Tox21_110001=Tox21_200790, viability, 1 nM T3 present, 24 h): > 100 µM
CN(C)C(Cc1ccccc1)c1ccccc1 (stereo not drawn) [N,N-Dimethyl-1,2-diphenylethanamine]		CC50 at 24 h (AC50 (uM) modified / 1000, Tox21_110001=Tox21_112703, viability, 1 nM T3 present, 24 h): > 50 µM
CC[C@H](C)[C@H](NC(=O)[C@H](Cc1ccccc1)NC(=O)[C@H](C)NC(=O)[C@H](CC(=O)O)NC(=O)[C@H](CCCCN)NC(=O)[C@H](CO)NC(=O)[C@@H]1CCCN1C(=O)[C@@H]1CCC(=O)N1)C(=O)NCC(=O)N[C@@H](CC(C)C)C(=O)N[C@@H](CCSC)C(N)=O [Eledoisin] ([pGlu]PSKDAFIGLM-NH2)		CC50 at 24 h (AC50 (uM) modified / 1000, Tox21_110001=Tox21_112815, viability, 1 nM T3 present, 24 h): > 50 µM
COC(=O)[C@H]1[C@@H](OC(=O)c2ccccc2)C[C@@H]2CC[C@H]1N2C [(-)-Cocaine hydrochloride]	> 90 µM	
C=C(C)C(=O)OCCOP(=O)(O)OCCOC(=O)C(=C)C [Bis(methacryloyloxyethyl) hydrogen phosphate]	> 90 µM	
C=CC(=O)NC(C)C [N-Isopropylacrylamide]	> 90 µM	
CC(CC(C)C)=NO [N-Hydroxy-4-methylpentan-2-imine]	> 90 µM	
CC(C)CC(O)CC(C)C [2,6-Dimethyl-4-heptanol]	> 90 µM	
CCCCOC(=O)c1ccccc1 [Butyl benzoate]	> 90 µM	
CC[C@H](CC[C@@H](C)[C@H]1CC[C@H]2[C@@H]3CC=C4C[C@@H](O)CC[C@]4(C)[C@H]3CC[C@]12C)C(C)C [beta-Sitosterol]	> 50 µM	
O=C(NC(=O)c1c(F)cccc1F)Nc1ccc(Cl)cc1 [Diflubenzuron]	> 90 µM	
NC(=O)N(O)[C@@H]1C=C[C@H](Oc2cccc(Oc3ccc(F)cc3)c2)C1 [CJ-013790]	> 90 µM	
CC1=CCC(C(C)C)=CC1 [gamma-Terpinene]	> 90 µM	
COc1cc(C(=O)OC(COCCC(C)C)CN2CCOCC2)cc(OC)c1OC (stereo not drawn) [Amoproxan]	> 50 µM	
CC1(C)S[C@@H]2[C@H](NC(=O)C(c3ccccc3)S(=O)(=O)O)C(=O)N2[C@H]1C(=O)O (stereo partly drawn) [Sulbenicillin disodium]	> 50 µM	
C=CCc1ccccc1OCC(O)CNC(C)C (stereo not drawn) [Alprenolol]	> 50 µM	
CSCc1cnccn1 [(Methylthio)methylpyrazine]	> 200 µM	
C#C[C@]1(O)CC[C@H]2[C@@H]3CCc4cc(OC)ccc4[C@H]3CC[C@@]21C [Mestranol]	> 90 µM	

SMILES	CC50 at 24 h (AC50 (uM) modified / 1000)	other results
C[C@@H]1O[C@@H](O[C@H]2C[C@@H](O)[C@]3(CO)[C@H]4[C@H](O)C[C@]5(C)[C@@H](C6=CC(=O)OC6)CC[C@]5(O)[C@@H]4CC[C@]3(O)C2)[C@H](O)[C@H](O)[C@H]1O [Ouabain]	> 80 µM	
CCCCCc1cc(O)cc(O)c1 [Olivetol]		CC50 at 24 h (AC50 (uM) modified / 1000, Tox21_110001=Tox21_202349, viability, 1 nM T3 present, 24 h): 78.4 µM; CC50 at 24 h (AC50 (uM) modified / 1000, Tox21_110001=Tox21_303332, viability, 1 nM T3 present, 24 h): 75.4 µM
CN(C)C(=O)Nc1cccc(OC(=O)NC(C)(C)C)c1 [Karbutilate]		CC50 at 24 h (AC50 (uM) modified / 1000, Tox21_110001=Tox21_301748, viability, 1 nM T3 present, 24 h): > 90 µM
O=C(c1ccc2c(c1)C(=O)OC2=O)c1ccc2c(c1)C(=O)OC2=O [Benzophenonetetracarboxylic dianhydride]	> 90 µM	
CC(=O)O[C@H]1C[C@H](O[C@H]2[C@@H](O)C[C@H](O[C@H]3[C@@H](O)C[C@H](O[C@H]4CC[C@@]5(C)[C@H](CC[C@@H]6[C@@H]5CC[C@]5(C)[C@@H](C7=CC(=O)OC7)CC[C@]65O)C4)O[C@@H]3C)O[C@@H]2C)O[C@H](C)[C@H]1O[C@@H]1O[C@H](CO)[C@@H](O)[C@H](O)[C@H]1O [Lanatoside A]	> 50 µM	
NC(=O)c1ccncc1 [Isonicotinamide]	> 100 µM	
CC1=CC[C@H](CC=O)C1(C)C [[(1R)-2,2,3-Trimethylcyclopent-3-en-1-yl]acetaldehyde]	> 90 µM	
CC(Cl)(Cl)Cl [1,1,1-Trichloroethane]	> 90 µM	
CCC(C)(C)C1CCC(=O)CC1 [4-(tert-Pentyl)-cyclohexanone]	> 90 µM	
O=C(O)CC(C(=O)O)C(CC(=O)O)C(=O)O (stereo not drawn) [1,2,3,4-Butanetetracarboxylic acid]	> 90 µM	
CCOC(=O)NC(O)C(Cl)(Cl)Cl (stereo not drawn) [Carbocloral]	> 50 µM	
CNC(=O)Oc1ccccc1C1OCCO1 [Dioxacarb]		CC50 at 24 h (AC50 (uM) modified / 1000, Tox21_110001=Tox21_302420, viability, 1 nM T3 present, 24 h): > 90 µM
CO[C@]12C[C@@H](COC(=O)c3cncc(Br)c3)CN(C)[C@@H]1Cc1cn(C)c3cccc2c13 [Nicergoline]	16.4 µM	
CCOCCC(=O)OCC [Ethyl 3-ethoxypropionate]	> 100 µM	
CCCC(=O)Nc1ccc(OCC(O)CNC(C)C)c(C(C)=O)c1 (stereo not drawn) [Acebutolol hydrochloride]	> 20 µM	
Cl/C=C\C[N+]12CN3CN(CN(C3)C1)C2 [Chloroallyl methenamine chloride]	> 90 µM	
CC(=O)OCC(=O)[C@@]1(O)[C@H](OC(C)=O)C[C@H]2[C@@H]3CCC4=CC(=O)C=C[C@]4(C)[C@@]3(F)[C@@H](O)C[C@@]21C [Triamcinolone diacetate]	> 50 µM	
C[Si](C)O[Si](C)(C)O[Si](C)(C)O[Si](C)C	> 90 µM	
CC(C)=CCC/C(C)=C/C=O [3,7-Dimethyl-2,6-octadienal]	> 90 µM	
COC(=O)c1ccccc1C [Methyl 2-methylbenzoate]	> 90 µM	
